In patent US10759816B2, “Heterocyclic compounds as RSV inhibitors” (Enanta Pharmaceuticals, Inc., priority 2016, dated 2020):

These compounds were tested on genotype A, "Long" strain RSV (assay: RSV-A in vitro cytoprotection assay in HEp-2 cells (ATPlite readout of cell viability)). Settings: human respiratory syncytial virus, HEp-2, HEp-2 cells, genotype A “Long” strain RSV, cytoprotection; read-out: Human RSV-A (“Long” strain) EC50.
Type: cell-based, Human respiratory syncytial virus
Procedure, shortened: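 HEp-2 cells (8,000/well) given 2-fold compound dilutions in duplicate, then infected with RSV-A Long strain stock; viability read by ATPlite luminescence after 4 days. EC50 derived from cytoprotection; cytotoxicity measured on parallel uninfected plate.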

Compared with `Cc1cccc(F)c1NC(=O)c1cc2c(s1)-c1ccccc1N(C(=O)c1cccc(-c3c[nH]nc3/C=C/c3ccccc3)n1)CC2` [Example 265], `Cc1cccc(F)c1NC(=O)c1cc2c(s1)-c1ccccc1N(C(=O)c1cccc(-c3cn[nH]c3-c3ccccc3)n1)CC2` [Example 212] is lower in EC50: over 800 nM for the first, under 400 nM for the second.

`Cc1cccc(F)c1NC(=O)c1cc2c(s1)-c1ccccc1N(C(=O)c1ccc(-c3cn(S(C)(=O)=O)c4ncccc34)cc1)CC2` [Example 268] and `Cc1cccc(F)c1NC(=O)c1cc2c(s1)-c1ccccc1N(C(=O)c1ccc(-c3c[nH]nc3C)cc1)CC2` [Example 269] cannot be ordered by EC50: over 800 nM for the first, over 800 nM for the second.

First: Cn1cc(-c2cccc(C(=O)N3CCc4cc(C(=O)NC5CC5)sc4-c4ccccc43)n2)ccc1=O [Example 151]
Second: CC(=O)c1ccc(-c2cccc(C(=O)N3CCc4cc(C(=O)NC5CC5)sc4-c4ccccc43)n2)cc1 [Example 63]
The EC50 of the first is higher: over 800 nM for the first, 400 to 800 nM for the second.

Compared with `Cc1cccc(F)c1NC(=O)c1cc2c(s1)-c1ccccc1N(C(=O)c1cccc(-c3cncn3-c3ccccc3F)n1)CC2` [Example 205], `Cc1cccc(F)c1NC(=O)c1cc2c(s1)-c1ccccc1N(C(=O)c1cccc(-c3c[nH]c4ccccc34)n1)CC2` [Example 207] is lower in EC50: over 800 nM for the first, under 400 nM for the second.

First: Cc1cccc(F)c1NC(=O)c1cc2c(s1)-c1ccccc1N(C(=O)c1cccc(NC3CS(=O)(=O)c4ccccc43)n1)CC2 (centres unmarked) [Example 476]
Second: Cc1cccc(F)c1NC(=O)c1cc2c(s1)-c1ccccc1N(C(=O)c1cccc(N3CCS(=O)(=O)c4ccccc4[C@@H]3C)n1)CC2 [Example 434]
The EC50 of the first is lower: under 400 nM for the first, over 800 nM for the second.

`O=C(NC1CC1)c1cc2c(s1)-c1ccccc1N(C(=O)c1ccnc(N3CCOCC3)c1)CC2` [Example 46] and `O=C(NC1CC1)c1cc2c(s1)-c1ccccc1N(C(=O)c1ccc(N3CCOCC3)cc1)CC2` [Example 3] cannot be ordered by EC50: over 800 nM for the first, over 800 nM for the second.

`Cc1cccc(F)c1NC(=O)c1cc2c(s1)-c1ccccc1N(C(=O)c1cccc(-c3cn(S(C)(=O)=O)nc3C3CC3)n1)CC2` [Example 215] and `Cc1cccc(F)c1NC(=O)c1cc2c(s1)-c1ccccc1N(C(=O)c1cccc(-c3cn(S(=O)(=O)C4CC4)nc3C3CC3)n1)CC2` [Example 221] cannot be ordered by EC50: under 400 nM for the first, under 400 nM for the second.

First: O=C(NC1CC1)c1cc2c(s1)-c1ccccc1N(C(=O)c1cccc(N3CCOc4ccccc4C3)n1)CC2 [Example 32]
Second: O=C(Nc1ccccc1)c1cc2c(s1)-c1ccccc1N(C(=O)c1cccc(N3CCOc4ccccc4C3)n1)CC2 [Example 299]
The EC50 of the first is lower: under 400 nM for the first, 400 to 800 nM for the second. The first is the more potent here.

`Cc1cccc(F)c1NC(=O)c1cc2c(s1)-c1ccccc1N(C(=O)c1cccc(N(CCO)C3CCC3)n1)CC2` [Example 327] and `COCCN(c1cccc(C(=O)N2CCc3cc(C(=O)Nc4c(C)cccc4F)sc3-c3ccccc32)n1)C1CCC1` [Example 328] cannot be ordered by EC50: under 400 nM for the first, under 400 nM for the second.

`O=C(NC1CC1)c1cc2c(s1)-c1ccccc1N(C(=O)c1ccc3c(c1)ncn3C1CCOCC1)CC2` [Example 14] and `O=C(NC1CC1)c1cc2c(s1)-c1ccccc1N(C(=O)c1ccc3ccc(N4CCOCC4)nc3c1)CC2` [Example 297] cannot be ordered by EC50: over 800 nM for the first, over 800 nM for the second.

Compared with `Cc1cccc(F)c1NC(=O)c1cc2c(s1)-c1ccccc1N(C(=O)c1cccc(-c3cn(C)nc3C3CC3)n1)CC2` [Example 197], `Cc1cccc(F)c1NC(=O)c1cc2c(s1)-c1ccccc1N(C(=O)c1cccc(-c3cn(C(=O)N(C)C)nc3C3CC3)n1)CC2` [Example 219] is higher in EC50: under 400 nM for the first, 400 to 800 nM for the second.

`Cc1cccnc1NC(=O)c1cc2c(s1)-c1ccccc1N(C(=O)c1cccc(N3CCOc4ccccc4C3)n1)CC2` [Example 301] and `Cc1cccc2c1CN(c1cccc(C(=O)N3CCc4cc(C(=O)Nc5c(C)cccc5F)sc4-c4ccccc43)n1)CCO2` [Example 405] cannot be ordered by EC50: under 400 nM for the first, under 400 nM for the second.

`Cc1cnc(N2CC3(COC3)C2)c(NC(=O)c2ccc(C(=O)N3CCc4cc(C(=O)Nc5c(C)cccc5F)sc4-c4ccccc43)cc2)c1` [Example 141] and `Cc1cccc(F)c1NC(=O)c1cc2c(s1)-c1ccccc1N(C(=O)c1ccc(Nc3cccnc3N3CC4(CCOCC4)C3)cc1)CC2` [Example 134] cannot be ordered by EC50: over 800 nM for the first, over 800 nM for the second.

`CCn1nccc1-c1cccc(C(=O)N2CCc3cc(C(=O)Nc4c(C)cccc4F)sc3-c3ccccc32)n1` [Example 238] and `Cc1cccc(F)c1NC(=O)c1cc2c(s1)-c1ccccc1N(C(=O)c1cccc(-c3ccnn3C)n1)CC2` [Example 237] cannot be ordered by EC50: under 400 nM for the first, under 400 nM for the second.

`O=C(Nc1cc2c(s1)-c1ccccc1N(C(=O)c1cccc(N3CCOc4ccccc4C3)n1)CC2)NS(=O)(=O)c1ccccc1` [Example 315] and `NNC(=O)c1ccc2c(c1)CCN(C(=O)c1cccc(N3CCOc4ccccc4C3)n1)c1ccccc1-2` [Example 398] cannot be ordered by EC50: over 800 nM for the first, over 800 nM for the second.

`Cc1cccc(F)c1NC(=O)c1cc2c(s1)-c1ccc(F)cc1N(C(=O)c1cccc(-c3cn[nH]c3C3CC3)n1)CC2` [Example 170] and `Cc1cccc(F)c1NC(=O)c1cc2c(s1)-c1cc(F)ccc1N(C(=O)c1cccc(-c3c[nH]nc3C3CC3)n1)CC2` [Example 263] cannot be ordered by EC50: under 400 nM for the first, under 400 nM for the second.

`CN(Cc1ccccn1)c1cccc(C(=O)N2CCc3cc(C(=O)NC4CC4)sc3-c3ccccc32)n1` [Example 286] and `O=C(NC1CC1)c1cc2c(s1)-c1ccccc1N(C(=O)c1cccc(-c3cccnc3)n1)CC2` [Example 154] cannot be ordered by EC50: over 800 nM for the first, over 800 nM for the second.

Going from `CCn1nccc1-c1cccc(C(=O)N2CCc3cc(C(=O)Nc4c(C)cccc4F)sc3-c3ccc(F)cc32)n1` [Example 174] to `Cc1cccc(F)c1NC(=O)c1cc2c(s1)-c1ccc(F)cc1N(C(=O)c1cccc(N3C(=O)CC[C@@H]3CN)n1)CC2` [Example 492], the EC50 rises from under 400 nM to over 800 nM. The first is the more potent here.

`Cc1cccc(F)c1NC(=O)c1cc2c(s1)-c1ccc(F)cc1N(C(=O)c1cccc(N(C)C[C@H]3CCCO3)n1)CC2` [Example 491] and `Cc1cccc(F)c1NC(=O)c1cc2c(s1)-c1ccccc1N(C(=O)c1cccc(NC[C@@H]3CCCO3)n1)CC2` [Example 459] cannot be ordered by EC50: under 400 nM for the first, under 400 nM for the second.

First: COc1cccc2c1ccn2-c1cccc(C(=O)N2CCc3cc(C(=O)Nc4c(C)cccc4F)sc3-c3ccccc32)n1 [Example 119]
Second: Cc1cccc(F)c1NC(=O)c1cc2c(s1)-c1ccccc1N(C(=O)c1cccc(-n3c(=O)[nH]c4ccccc43)n1)CC2 [Example 450]
The EC50 of the first is higher: 400 to 800 nM for the first, under 400 nM for the second. The second is the more potent here.

`O=C(NC1CCC(F)(F)CC1)c1cc2c(s1)-c1ccccc1N(C(=O)c1cccc(-c3c[nH]nc3C3CC3)n1)CC2` [Example 175] and `O=C(N[C@@H]1CCOC1)c1cc2c(s1)-c1ccccc1N(C(=O)c1cccc(-c3c[nH]nc3C3CC3)n1)CC2` [Example 176] cannot be ordered by EC50: under 400 nM for the first, under 400 nM for the second.

`Cc1ccc2c(-c3cccc(C(=O)N4CCc5cc(C(=O)Nc6c(C)cccc6F)sc5-c5ccccc54)n3)cn(C(=O)OC(C)(C)C)c2c1` [Example 246] and `Cc1cccc(F)c1NC(=O)c1cc2c(s1)-c1ccccc1N(C(=O)c1cccc(-c3ccc4ccc(=O)[nH]c4c3)n1)CC2` [Example 191] cannot be ordered by EC50: over 800 nM for the first, over 800 nM for the second.

`CC(C)(O)c1ccc(-c2cccc(C(=O)N3CCc4cc(C(=O)NC5CC5)sc4-c4ccccc43)n2)cc1` [Example 64] and `O=C(NC1CC1)c1cc2c(s1)-c1ccccc1N(C(=O)c1cccc(-c3ccc(C(F)(F)F)nc3)n1)CC2` [Example 73] fall in the same range of EC50: 400 to 800 nM for the first, 400 to 800 nM for the second.

`COc1ncccc1Oc1cccc(C(=O)N2CCc3cc(C(=O)NC4CC4)sc3-c3ccccc32)n1` [Example 394] and `COc1ncccc1Nc1cccc(C(=O)N2CCc3cc(C(=O)NC4CC4)sc3-c3ccccc32)n1` [Example 410] cannot be ordered by EC50: over 800 nM for the first, over 800 nM for the second.

`COC[C@H]1CCN1c1cccc(C(=O)N2CCc3cc(C(=O)Nc4c(C)cccc4F)sc3-c3ccccc32)n1` [Example 507] and `Cc1cccc(F)c1NC(=O)c1cc2c(s1)-c1ccccc1N(C(=O)c1cccc(N3CCC[C@H]3C(C)C)n1)CC2` [Example 483] cannot be ordered by EC50: under 400 nM for the first, under 400 nM for the second.

`N#Cc1ccc(-c2cccc(C(=O)N3CCc4cc(C(=O)NC5CC5)sc4-c4ccccc43)c2)cc1` [Example 7] and `COCCOc1ccc(-c2cccc(C(=O)N3CCc4cc(C(=O)NC5CC5)sc4-c4ccccc43)n2)cn1` [Example 74] fall in the same range of EC50: 400 to 800 nM for the first, 400 to 800 nM for the second.

First: COc1ccc(-c2cccc(C(=O)N3CCc4cc(C(=O)NC5CC5)oc4-c4ccccc43)n2)cn1 [Example 107]
Second: COc1ccc(-c2cccc(C(=O)N3CCc4ccc(C(=O)NC5CC5)cc4-c4ccccc43)n2)cn1 [Example 105]
The EC50 of the first is lower: 400 to 800 nM for the first, over 800 nM for the second.

First: Cc1cccc(F)c1NC(=O)c1cc2c(s1)-c1ccccc1N(C(=O)c1cccc(N3CCNS(=O)(=O)CC3)n1)CC2 [Example 446]
Second: Cc1cccc(F)c1NC(=O)c1cc2c(s1)-c1ccccc1N(C(=O)c1cccc(N3CC4(C3)CS(=O)(=O)C4)n1)CC2 [Example 428]
The EC50 of the first is lower: under 400 nM for the first, over 800 nM for the second.

`COc1ccccc1[C@H](C)Nc1cccc(C(=O)N2CCc3cc(C(=O)Nc4c(C)cccc4F)sc3-c3ccccc32)n1` [Example 347] and `Cc1cccc(F)c1NC(=O)c1cc2c(s1)-c1ccccc1N(C(=O)c1cccc(NCCS(C)(=O)=O)n1)CC2` [Example 422] cannot be ordered by EC50: over 800 nM for the first, over 800 nM for the second.

First: Cc1cccc(F)c1NC(=O)c1cc2c(s1)-c1ccccc1N(C(=O)c1cccc(N3CCC[C@H]3Cc3ccccc3)n1)CC2 [Example 487]
Second: Cc1cccc(F)c1NC(=O)c1cc2c(s1)-c1ccccc1N(C(=O)c1cccc(N(C)Cc3ccccc3-c3ccccc3)n1)CC2 [Example 355]
The EC50 of the first is lower: 400 to 800 nM for the first, over 800 nM for the second. The first is the more potent here.

Going from `O=C(NC1CC1)c1cc2c(s1)-c1ccccc1N(C(=O)c1ccc(CC(=O)N3CCOCC3)cc1)CC2` [Example 8] to `O=C(NC1CC1)c1cc2c(s1)-c1ccccc1N(C(=O)c1ccc(F)c(N3CCCOCC3)n1)CC2` [Example 45], the EC50 falls from over 800 nM to under 400 nM.

Going from `O=C(NC1CC1)c1cc2c(s1)-c1ccccc1N(C(=O)c1cccc(-c3cncn3C3CC3)n1)CC2` [Example 165] to `O=C(NC1CC1)c1cc2c(s1)-c1ccccc1N(C(=O)c1cccc(-c3csc(N4CCOCC4)n3)n1)CC2` [Example 167], the EC50 rises from under 400 nM to over 800 nM.

For `Cc1cccc(F)c1NC(=O)c1cc2c(s1)-c1ccccc1N(C(=O)c1cccc(-c3cncn3C3(C)CC3)n1)CC2` [Example 201], the EC50 was over 800 nM.
